Assay results taken from patent US8933224B2, “Triazine derivatives” (Pfizer Inc., priority 2013, dated 2015).

What was measured:
[1] = target: human recombinant PDE10 enzyme (PDE10A) (Homo sapiens, UniProt Q9Y233); experiment: PDE10 scintillation proximity assay (SPA), inhibition of human recombinant PDE10 enzyme activity; assay type: biochemical; settings: geometric mean of 2-4 determinations unless otherwise indicated (b: ≧5 determinations; c: single determination)
Method: PDE10 activity was measured using a scintillation assay (SPA-based method) similar to that previously described by Seeger, T. F. et al., Brain Research 985 (2003) 113-126. The compounds' relative activity as PDE10 inhibitors was investigated by assaying a fixed amount of enzyme in the presence of the test compound and low substrate concentration (cAMP) such that an IC50 could be determined. […] The assay is performed in a 384-well format with 50 μL assay buffer (50 mM TRIS pH 7.5; 1.3 mM MgCl2; 0.01% Brij) containing enough PDE10 to convert ˜20% of 20 nM ^3H-cAMP, and a range of inhibitors. Reactions are incubated for 30 minutes at 25° C. The addition of 20 μL of 8 mg/ml yttrium silicate SPA beads (PerkinElmer) stops the reaction. The plates are sealed (TopSeal, PerkinElmer) and the beads are allowed to settle for 8 hrs, after which they are read on the Trilux Microbeta overnight. ^1Rat enzyme preparation:^2Human enzyme preparation:
Human PDE10A coding sequence (amino acids 21 to 797 from the sequence with accession number NP_001124162.1) was synthesized using codon optimization for insect expression and cloned into the baculovirus expression vector pFastBac (Invitrogen) engineered to include a N-terminal His6 affinity tag to aid in purification as described in Seeger, T. F. et al., Brain Research 985 (2003) 113-126. The recombinant Bacmid was isolated and used to transfect sf9 insect cells to generate a viral stock. To generate cell paste for purification, sf21 cells were infected with the virus stock and cells were harvested 72 hours after infection as described in Seeger, T. F. et al., Brain Research 985 (2003) 113-126. Insect cell paste was lysed and after centrifugation, the supernatant was chromatographed on Ni-NTA agarose (Qiagen) as described in Seeger, T. F. et al., Brain Research 985 (2003) 113-126. Ni-NTA agarose eluting fractions containing PDE10A were chromatographed on Superdex 200 (GE Healthcare Life Sciences) in 50 mM Tris HCl pH 7.5, 150 mM NaCl, 1 mM EDTA, 10% glycerol, 2 mM TCEP, 1.5 mM benzamidine, EDTA-free protease inhibitors (Roche), and 5 μM E-64.

rat PDE10 enzyme = rat PDE10 enzyme (Rattus norvegicus (Rat), UniProt Q9QYJ6); experiment: PDE10 scintillation proximity assay (SPA), inhibition of rat PDE10 enzyme activity; assay type: biochemical; settings: geometric mean of 2-4 determinations unless otherwise indicated (b: ≧5 determinations; c: single determination)
rat PDE10 enzyme, sequence (Q9QYJ6 24-794): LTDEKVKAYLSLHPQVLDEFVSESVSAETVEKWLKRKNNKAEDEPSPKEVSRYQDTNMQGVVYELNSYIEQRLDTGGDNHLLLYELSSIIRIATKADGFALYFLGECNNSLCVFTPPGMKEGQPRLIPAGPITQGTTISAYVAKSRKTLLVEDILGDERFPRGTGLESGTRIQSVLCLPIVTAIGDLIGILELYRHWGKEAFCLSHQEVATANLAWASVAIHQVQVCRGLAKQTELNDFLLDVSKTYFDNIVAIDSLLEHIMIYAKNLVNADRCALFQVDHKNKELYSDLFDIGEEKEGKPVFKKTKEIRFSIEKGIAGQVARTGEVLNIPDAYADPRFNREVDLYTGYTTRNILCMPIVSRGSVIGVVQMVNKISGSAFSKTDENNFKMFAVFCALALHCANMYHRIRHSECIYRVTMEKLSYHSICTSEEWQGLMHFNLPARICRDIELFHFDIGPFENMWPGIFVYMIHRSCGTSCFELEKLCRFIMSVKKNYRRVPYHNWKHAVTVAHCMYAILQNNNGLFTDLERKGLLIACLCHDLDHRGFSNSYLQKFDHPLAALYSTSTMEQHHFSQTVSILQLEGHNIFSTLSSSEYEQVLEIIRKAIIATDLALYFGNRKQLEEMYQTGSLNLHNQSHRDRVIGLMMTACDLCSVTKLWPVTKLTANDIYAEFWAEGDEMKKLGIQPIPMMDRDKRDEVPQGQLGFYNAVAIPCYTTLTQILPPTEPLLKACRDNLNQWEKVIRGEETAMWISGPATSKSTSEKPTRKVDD
Outline: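 SPA with fixed recombinant PDE10 (Sf21-expressed, Ni-NTA and Mono Q purified) converting ~20% of 20 nM ³H-cAMP in 50 mM TRIS pH 7.5, 1.3 mM MgCl2, 0.01% Brij, across an inhibitor range.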

SMILES | IC50 [1] [nM] | IC50 (rat PDE10 enzyme) [nM]
Cc1nc(C)c2c(n1)CCN(c1ncnn3c(C)nc([C@@H]4CCOC4)c13)C2 [Example 38, 2,4-dimethyl-6-{7-methyl-5-[(3S)-tetrahydrofuran-3-yl]imidazo[5,1-f][1,2,4]triazin-4-yl}-5,6,7,8-tetrahydropyrido[4,3-d]pyrimidine] | 2.92 | 1.78
Cc1nc([C@@H]2CCOC2)c2c(N3CCc4ncccc4C3)ncnn12 [Example 47, 6-{7-methyl-5-[(3S)-tetrahydrofuran-3-yl]imidazo[5,1-f][1,2,4]triazin-4-yl}-5,6,7,8-tetrahydro-1,6-naphthyridine] | 1.42 | 0.758
Cc1nc([C@H]2CCOC2)c2c(N3CCn4ncc(C(F)(F)F)c4C3)ncnn12 [Example 50, 7-methyl-5-[(3R)-tetrahydrofuran-3-yl]-4-[3-(trifluoromethyl)-6,7-dihydropyrazolo[1,5-a]pyrazin-5(4H)-yl]imidazo[5,1-f][1,2,4]triazine] | 3.27 | 2.25
CCc1c2c(nn1C)CCN(c1ncnn3c(C)nc([C@@H]4CCOC4)c13)C2 [Example 57, 4-(3-ethyl-2-methyl-2,4,6,7-tetrahydro-5H-pyrazolo[4,3-c]pyridin-5-yl)-7-methyl-5-[(3S)-tetrahydrofuran-3-yl]imidazo[5,1-f][1,2,4]triazine] | 13.8 | 0.364
COc1cc2c(cn1)CN(c1ncnn3c(C)nc([C@@H]4CCOC4)c13)CC2 [Example 70, 6-methoxy-2-{7-methyl-5-[(3S)-tetrahydrofuran-3-yl]imidazo[5,1-f][1,2,4]triazin-4-yl}-1,2,3,4-tetrahydro-2,7-naphthyridine] | 1.95 | 1.52
COc1cc2c(cn1)CN(c1ncnn3c(C)nc(-c4ccccc4F)c13)CC2 [Example 71, 2-[5-(2-fluorophenyl)-7-methylimidazo[5,1-f][1,2,4]triazin-4-yl]-6-methoxy-1,2,3,4-tetrahydro-2,7-naphthyridine] | 5.77 | 3.41
Cc1nc(-c2ccccc2F)c2c(N3CCc4ccc(C5CC5)nc4C3)ncnn12 [Example 75, 2-cyclopropyl-7-[5-(2-fluorophenyl)-7-methylimidazo[5,1-f][1,2,4]triazin-4-yl]-5,6,7,8-tetrahydro-1,7-naphthyridine] | 6.03 | 3.56
Cc1nc2c(c(C(F)(F)F)n1)CN(c1ncnn3c(C)nc([C@@H]4CCOC4)c13)CC2 [Example 88, 2-methyl-6-{7-methyl-5-[(3S)-tetrahydrofuran-3-yl]imidazo[5,1-f][1,2,4]triazin-4-yl}-4-(trifluoromethyl)-5,6,7,8-tetrahydropyrido[4,3-d]pyrimidine] | 3.64 | 1.56
Cc1nc(-c2ccccc2F)c2c(N3CCc4nc(C5CC5)nc(C(F)(F)F)c4C3)ncnn12 [Example 90, 2-cyclopropyl-6-[5-(2-fluorophenyl)-7-methylimidazo[5,1-f][1,2,4]triazin-4-yl]-4-(trifluoromethyl)-5,6,7,8-tetrahydropyrido[4,3-d]pyrimidine] | 4.55 | 3.09
Cc1nc(C2CCOCC2)c2c(N3CCc4ncccc4C3)ncnn12 [Example 95, 6[7-methyl-5-(tetrahydro-2H-pyran-4-yl)imidazo[5,1-f][1,2,4]triazin-4-yl]-5,6,7,8-tetrahydro-1,6-naphthyridine] | 8.82 | 10.1
Cc1nc([C@H]2CCOC2)c2c(N3CCc4ncccc4C3)ncnn12 [Example 96, 6-{7-methyl-5-[(3R)-tetrahydrofuran-3-yl]imidazo[5,1-f][1,2,4]triazin-4-yl}-5,6,7,8-tetrahydro-1,6-naphthyridine] | 4.8 | 5.2
Cc1ncc2c(n1)CCN(c1ncnn3c(C)nc(-c4ccccc4F)c13)C2 [Example 111, 6-[5-(2-fluorophenyl)-7-methylimidazo[5,1-f][1,2,4]triazin-4-yl]-2-methyl-5,6,7,8-tetrahydropyrido[4,3-d]pyrimidine] | 18.6 | 6.85
Cc1nc(-c2ccccc2F)c2c(N3CCc4c(c(C(F)(F)F)nn4C)C3)ncnn12 [Example 118, 5-(2-fluorophenyl)-7-methyl-4-[1-methyl-3-(trifluoromethyl)-1,4,6,7-tetrahydro-5H-pyrazolo[4,3-c]pyridin-5-yl]imidazo[5,1-f][1,2,4]triazine] | 1.28 | 0.943

These reach a lower IC50 [1]. Values come first.

IC50 [1] [nM] | IC50 (rat PDE10 enzyme) [nM] | SMILES
0.582 | 0.236 | COc1nccc2c1CN(c1ncnn3c(C)nc([C@@H]4CCOC4)c13)CC2 [Example 28, 8-methoxy-2-{7-methyl-5-[(3S)-tetrahydrofuran-3-yl]imidazo[5,1-f][1,2,4]triazin-4-yl}-1,2,3,4-tetrahydro-2,7-naphthyridine]
0.384 | 0.307 | COc1cnc2c(c1)CN(c1ncnn3c(C)nc([C@@H]4CCOC4)c13)CC2 [Example 29, 3-methoxy-6-{7-methyl-5-[(3S)-tetrahydrofuran-3-yl]imidazo[5,1-f][1,2,4]triazin-4-yl}-5,6,7,8-tetrahydro-1,6-naphthyridine]
0.275 | 0.123 | CCOc1nc(C)nc2c1CN(c1ncnn3c(C)nc([C@@H]4CCOC4)c13)CC2 [Example 35, 4-ethoxy-2-methyl-6-{7-methyl-5-[(3S)-tetrahydrofuran-3-yl]imidazo[5,1-f][1,2,4]triazin-4-yl}-5,6,7,8-tetrahydropyrido[4,3-d]pyrimidine]
0.98 | 0.442 | Cc1nc(C2CC2)nc2c1CN(c1ncnn3c(C)nc(-c4ccccc4F)c13)CC2 [Example 40, 2-cyclopropyl-6-[5-(2-fluorophenyl)-7-methylimidazo[5,1-f][1,2,4]triazin-4-yl]-4-methyl-5,6,7,8-tetrahydropyrido[4,3-d]pyrimidine]
0.11 | 0.102 | Cc1nc([C@@H]2CCOC2)c2c(N3CCc4nn(C)c(C5CC5)c4C3)ncnn12 [Example 44, 4-(3-cyclopropyl-2-methyl-2,4,6,7-tetrahydro-5H-pyrazolo[4,3-c]pyridin-5-yl)-7-methyl-5-[(3S)-tetrahydrofuran-3-yl]imidazo[5,1-f][1,2,4]triazine]
1.12 | < 1.16 | COc1ccc2c(c1)CCN(c1ncnn3c(C)nc([C@@H]4CCOC4)c13)C2 [Example 58, 6-methoxy-2-{7-methyl-5-[(3S)-tetrahydrofuran-3-yl]imidazo[5,1-f][1,2,4]triazin-4-yl}-1,2,3,4-tetrahydroisoquinoline]
0.539 | 0.255 | Cc1ccc2c(n1)CN(c1ncnn3c(C)nc([C@@H]4CCOC4)c13)CC2 [Example 72, 2-methyl-7-{7-methyl-5-[(3S)-tetrahydrofuran-3-yl]imidazo[5,1-f][1,2,4]triazin-4-yl}-5,6,7,8-tetrahydro-1,7-naphthyridine]
0.211 | 0.0896 | Cc1nc([C@@H]2CCOC2)c2c(N3CCc4ccc(C5CC5)nc4C3)ncnn12 [Example 74, 2-cyclopropyl-7-{7-methyl-5-[(3S)-tetrahydrofuran-3-yl]imidazo[5,1-f][1,2,4]triazin-4-yl}-5,6,7,8-tetrahydro-1,7-naphthyridine]
0.182 | 0.556 | Cc1nc([C@H]2CCOC2)c2c(N3CCc4c(c(C(C)C)nn4C)C3)ncnn12 [Example 85, 7-methyl-4-{1-methyl-3-(propan-2-yl)-1,4,6,7-tetrahydro-5H-pyrazolo[4,3-c]pyridin-5-yl]-5-[(3R)-tetrahydrofuran-3-yl]imidazo[5,1-f][1,2,4]triazine]
0.0444 | 0.132 | Cc1nc([C@@H]2CCOC2)c2c(N3CCc4c(c(C(C)C)nn4C)C3)ncnn12 [Example 86, 7-methyl-4-[1-methyl-3-(propan-2-yl)-1,4,6,7-tetrahydro-5H-pyrazolo[4,3-c]pyridin-5-yl]-5-[(3S)-tetrahydrofuran-3-yl]imidazo[5,1-f][1,2,4]triazine]
0.61 | 0.793 | Cc1nc([C@@H]2CCOC2)c2c(N3CCc4cnn(C(C)C)c4C3)ncnn12 [Example 91]
0.664 | 0.997 | Cc1nc(-c2ccccc2F)c2c(N3CCc4cnn(C(C)C)c4C3)ncnn12 [Example 92, 5-(2-fluorophenyl)-7-methyl-4-[1-(propan-2-yl)-1,4,5,7-tetrahydro-6H-pyrazolo[3,4-c]pyridin-6-yl]imidazo[5,1-f][1,2,4]triazine]
